Source: article PMC9076611, “Ataluren binds to multiple protein synthesis apparatus sites and competitively inhibits release factor-dependent termination” (Nature Communications, 2022)

What was measured:
[1] = target: T1, eRF1 (Saccharomyces cerevisiae, UniProt P12385); assay: competition with [3H]-AzAt photoaffinity labeling of isolated eRF1 ([…] ataluren vs […] AzAt); format: binding
T1 construct: gene SUP45; Full-length S. cerevisiae eRF1

[2] = target: T1, eRF1; assay: photoaffinity labeling with [3H]-AzAt, saturation curve on isolated eRF1 (SDS-PAGE gel slice radioactivity); format: binding
Description: photoaffinity labeling with [3H]-AzAt, saturation curve on isolated eRF1 (SDS-PAGE gel slice radioactivity) on eRF1 | Photoincorporation into isolated eRF1 as a function of AzAt concentration results in a simple hyperbolic saturation curve

T1 sequence (P12385 whole entry): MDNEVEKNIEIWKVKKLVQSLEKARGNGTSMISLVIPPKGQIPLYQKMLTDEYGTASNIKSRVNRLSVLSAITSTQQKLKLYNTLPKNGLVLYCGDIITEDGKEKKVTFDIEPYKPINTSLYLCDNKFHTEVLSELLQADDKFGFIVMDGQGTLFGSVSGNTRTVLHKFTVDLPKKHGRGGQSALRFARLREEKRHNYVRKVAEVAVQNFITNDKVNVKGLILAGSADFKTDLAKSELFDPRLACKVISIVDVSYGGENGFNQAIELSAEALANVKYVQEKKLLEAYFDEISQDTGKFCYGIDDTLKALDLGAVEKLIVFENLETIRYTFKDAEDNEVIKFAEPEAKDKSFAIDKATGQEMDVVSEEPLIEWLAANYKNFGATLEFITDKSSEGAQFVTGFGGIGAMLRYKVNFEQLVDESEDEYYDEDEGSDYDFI

O=C(O)c1cccc(-c2noc(-c3ccccc3F)n2)c1 [ataluren]
competition with [3H]-AzAt photoaffinity labeling of isolated eRF1 (1000 μM atal) [1]: both ataluren and GJ072, an ataluren-like TRID, substantially inhibit AzAt photoincorporation into isolated eRF1

[N-]=[N+]=Nc1ccc(-c2nc(-c3cccc(C(=O)O)c3)no2)cc1 [AzAt, 3-(5-(4-azidophenyl)-1,2,4-oxadiazol-3-yl) benzoic acid]
EC50 [2]: 110 ± 20 µM
